{"source": "PubChem BioAssay (NCI)", "test_in_all_cases": "NCI-60 cell line screen, 48 h", "key": {"786-0 renal": {"tested_on": "786-0 renal"}, "A549 NSCLC": {"tested_on": "A549 NSCLC"}, "ACHN renal": {"tested_on": "ACHN renal"}, "CCRF-CEM leukemia": {"tested_on": "CCRF-CEM leukemia"}, "COLO 205 colon": {"tested_on": "COLO 205 colon"}, "DLD-1 colon": {"tested_on": "DLD-1 colon"}, "HCT-116 colon": {"tested_on": "HCT-116 colon"}, "HCT-15 colon": {"tested_on": "HCT-15 colon"}, "HL-60(TB) leukemia": {"tested_on": "HL-60(TB) leukemia"}, "HOP-18 NSCLC": {"tested_on": "HOP-18 NSCLC"}, "HOP-62 NSCLC": {"tested_on": "HOP-62 NSCLC"}, "IGROV1 ovarian": {"tested_on": "IGROV1 ovarian"}, "K-562 leukemia": {"tested_on": "K-562 leukemia"}, "LOX IMVI melanoma": {"tested_on": "LOX IMVI melanoma"}, "LXFL 529 NSCLC": {"tested_on": "LXFL 529 NSCLC"}, "M19-MEL melanoma": {"tested_on": "M19-MEL melanoma"}, "MOLT-4 leukemia": {"tested_on": "MOLT-4 leukemia"}, "NCI-H23 lung": {"tested_on": "NCI-H23 lung"}, "OVCAR-4 ovarian": {"tested_on": "OVCAR-4 ovarian"}, "RPMI-8226 leukemia": {"tested_on": "RPMI-8226 leukemia"}, "RXF-631 renal": {"tested_on": "RXF-631 renal"}, "SF-268 CNS": {"tested_on": "SF-268 CNS"}, "SF-295 CNS": {"tested_on": "SF-295 CNS"}, "SF-539 CNS": {"tested_on": "SF-539 CNS"}, "SN12C renal": {"tested_on": "SN12C renal"}, "SNB-19 CNS": {"tested_on": "SNB-19 CNS"}, "SR leukemia": {"tested_on": "SR leukemia"}, "SW-620 colon": {"tested_on": "SW-620 colon"}, "TK-10 renal": {"tested_on": "TK-10 renal"}, "UACC-257 melanoma": {"tested_on": "UACC-257 melanoma"}, "UO-31 renal": {"tested_on": "UO-31 renal"}, "A498 renal": {"tested_on": "A498 renal"}, "CAKI-1 renal": {"tested_on": "CAKI-1 renal"}, "DMS 273 small cell lung": {"tested_on": "DMS 273 small cell lung"}, "EKVX NSCLC": {"tested_on": "EKVX NSCLC"}, "HCC-2998 colon": {"tested_on": "HCC-2998 colon"}, "HOP-92 NSCLC": {"tested_on": "HOP-92 NSCLC"}, "HT29 colon": {"tested_on": "HT29 colon"}, "KM12 colon": {"tested_on": "KM12 colon"}, "KM20L2 colon": {"tested_on": "KM20L2 colon"}, "M14 melanoma": {"tested_on": "M14 melanoma"}, "MALME-3M melanoma": {"tested_on": "MALME-3M melanoma"}, "NCI-H226 lung": {"tested_on": "NCI-H226 lung"}, "NCI-H460 lung": {"tested_on": "NCI-H460 lung"}, "NCI-H522 lung": {"tested_on": "NCI-H522 lung"}, "OVCAR-3 ovarian": {"tested_on": "OVCAR-3 ovarian"}, "OVCAR-5 ovarian": {"tested_on": "OVCAR-5 ovarian"}, "OVCAR-8 ovarian": {"tested_on": "OVCAR-8 ovarian"}, "RXF 393 renal": {"tested_on": "RXF 393 renal"}, "SK-MEL-2 melanoma": {"tested_on": "SK-MEL-2 melanoma"}, "SK-MEL-28 melanoma": {"tested_on": "SK-MEL-28 melanoma"}, "SK-MEL-5 melanoma": {"tested_on": "SK-MEL-5 melanoma"}, "SK-OV-3 ovarian": {"tested_on": "SK-OV-3 ovarian"}, "SNB-75 CNS": {"tested_on": "SNB-75 CNS"}, "U251 CNS": {"tested_on": "U251 CNS"}, "UACC-62 melanoma": {"tested_on": "UACC-62 melanoma"}, "XF 498 CNS": {"tested_on": "XF 498 CNS"}}, "note": "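How tested: cells in 96-well plates exposed to compound for 48 hours at five concentrations. TGI: total growth inhibition.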"}
{"smiles": "COc1cc([C@@H]2c3cc4c(cc3C(N)C3COC(=O)[C@@H]32)OCO4)cc(OC)c1O", "note": "(stereo not given in full)", "values": [{"measurement": "TGI", "setting": "786-0 renal", "result": "> 100", "unit": "µM"}, {"measurement": "TGI", "setting": "A549 NSCLC", "result": "> 100", "unit": "µM"}, {"measurement": "TGI", "setting": "ACHN renal", "result": "> 100", "unit": "µM"}, {"measurement": "TGI", "setting": "CCRF-CEM leukemia", "result": "> 100", "unit": "µM"}, {"measurement": "TGI", "setting": "COLO 205 colon", "result": 0.362, "unit": "µM"}, {"measurement": "TGI", "setting": "DLD-1 colon", "result": "> 100", "unit": "µM"}, {"measurement": "TGI", "setting": "HCT-116 colon", "result": "> 100", "unit": "µM"}, {"measurement": "TGI", "setting": "HCT-15 colon", "result": "> 100", "unit": "µM"}, {"measurement": "TGI", "setting": "HL-60(TB) leukemia", "result": 0.555, "unit": "µM"}, {"measurement": "TGI", "setting": "HOP-18 NSCLC", "result": "> 100", "unit": "µM"}, {"measurement": "TGI", "setting": "HOP-62 NSCLC", "result": "> 100", "unit": "µM"}, {"measurement": "TGI", "setting": "IGROV1 ovarian", "result": "> 100", "unit": "µM"}, {"measurement": "TGI", "setting": "K-562 leukemia", "result": "> 100", "unit": "µM"}, {"measurement": "TGI", "setting": "LOX IMVI melanoma", "result": "> 100", "unit": "µM"}, {"measurement": "TGI", "setting": "LXFL 529 NSCLC", "result": "> 100", "unit": "µM"}, {"measurement": "TGI", "setting": "M19-MEL melanoma", "result": "> 100", "unit": "µM"}, {"measurement": "TGI", "setting": "MOLT-4 leukemia", "result": 1.17, "unit": "µM"}, {"measurement": "TGI", "setting": "NCI-H23 lung", "result": "> 100", "unit": "µM"}, {"measurement": "TGI", "setting": "OVCAR-4 ovarian", "result": "> 100", "unit": "µM"}, {"measurement": "TGI", "setting": "RPMI-8226 leukemia", "result": "> 100", "unit": "µM"}, {"measurement": "TGI", "setting": "RXF-631 renal", "result": 0.606, "unit": "µM"}, {"measurement": "TGI", "setting": "SF-268 CNS", "result": "> 100", "unit": "µM"}, {"measurement": "TGI", "setting": "SF-295 CNS", "result": "> 100", "unit": "µM"}, {"measurement": "TGI", "setting": "SF-539 CNS", "result": 0.586, "unit": "µM"}, {"measurement": "TGI", "setting": "SN12C renal", "result": "> 100", "unit": "µM"}, {"measurement": "TGI", "setting": "SNB-19 CNS", "result": 0.646, "unit": "µM"}, {"measurement": "TGI", "setting": "SR leukemia", "result": 0.428, "unit": "µM"}, {"measurement": "TGI", "setting": "SW-620 colon", "result": "> 100", "unit": "µM"}, {"measurement": "TGI", "setting": "TK-10 renal", "result": "> 100", "unit": "µM"}, {"measurement": "TGI", "setting": "UACC-257 melanoma", "result": "> 100", "unit": "µM"}, {"measurement": "TGI", "setting": "UO-31 renal", "result": "> 100", "unit": "µM"}]}
{"smiles": "COc1ccc(S(=O)(=O)Nc2ccccc2C(=O)O)cc1", "values": [{"measurement": "TGI", "setting": "786-0 renal", "result": "> 100", "unit": "µM"}, {"measurement": "TGI", "setting": "A498 renal", "result": "> 100", "unit": "µM"}, {"measurement": "TGI", "setting": "A549 NSCLC", "result": "> 100", "unit": "µM"}, {"measurement": "TGI", "setting": "ACHN renal", "result": "> 100", "unit": "µM"}, {"measurement": "TGI", "setting": "CAKI-1 renal", "result": "> 100", "unit": "µM"}, {"measurement": "TGI", "setting": "CCRF-CEM leukemia", "result": "> 100", "unit": "µM"}, {"measurement": "TGI", "setting": "COLO 205 colon", "result": "> 100", "unit": "µM"}, {"measurement": "TGI", "setting": "DLD-1 colon", "result": "> 100", "unit": "µM"}, {"measurement": "TGI", "setting": "DMS 273 small cell lung", "result": "> 100", "unit": "µM"}, {"measurement": "TGI", "setting": "EKVX NSCLC", "result": "> 100", "unit": "µM"}, {"measurement": "TGI", "setting": "HCC-2998 colon", "result": "> 100", "unit": "µM"}, {"measurement": "TGI", "setting": "HCT-15 colon", "result": "> 100", "unit": "µM"}, {"measurement": "TGI", "setting": "HL-60(TB) leukemia", "result": "> 100", "unit": "µM"}, {"measurement": "TGI", "setting": "HOP-18 NSCLC", "result": "> 100", "unit": "µM"}, {"measurement": "TGI", "setting": "HOP-92 NSCLC", "result": "> 100", "unit": "µM"}, {"measurement": "TGI", "setting": "HT29 colon", "result": "> 100", "unit": "µM"}, {"measurement": "TGI", "setting": "IGROV1 ovarian", "result": "> 100", "unit": "µM"}, {"measurement": "TGI", "setting": "K-562 leukemia", "result": "> 100", "unit": "µM"}, {"measurement": "TGI", "setting": "KM12 colon", "result": "> 100", "unit": "µM"}, {"measurement": "TGI", "setting": "KM20L2 colon", "result": "> 100", "unit": "µM"}, {"measurement": "TGI", "setting": "LOX IMVI melanoma", "result": "> 100", "unit": "µM"}, {"measurement": "TGI", "setting": "LXFL 529 NSCLC", "result": "> 100", "unit": "µM"}, {"measurement": "TGI", "setting": "M14 melanoma", "result": "> 100", "unit": "µM"}, {"measurement": "TGI", "setting": "M19-MEL melanoma", "result": "> 100", "unit": "µM"}, {"measurement": "TGI", "setting": "MALME-3M melanoma", "result": "> 100", "unit": "µM"}, {"measurement": "TGI", "setting": "MOLT-4 leukemia", "result": "> 100", "unit": "µM"}, {"measurement": "TGI", "setting": "NCI-H226 lung", "result": "> 100", "unit": "µM"}, {"measurement": "TGI", "setting": "NCI-H23 lung", "result": "> 100", "unit": "µM"}, {"measurement": "TGI", "setting": "NCI-H460 lung", "result": "> 100", "unit": "µM"}, {"measurement": "TGI", "setting": "NCI-H522 lung", "result": "> 100", "unit": "µM"}, {"measurement": "TGI", "setting": "OVCAR-3 ovarian", "result": "> 100", "unit": "µM"}, {"measurement": "TGI", "setting": "OVCAR-4 ovarian", "result": "> 100", "unit": "µM"}, {"measurement": "TGI", "setting": "OVCAR-5 ovarian", "result": "> 100", "unit": "µM"}, {"measurement": "TGI", "setting": "OVCAR-8 ovarian", "result": "> 100", "unit": "µM"}, {"measurement": "TGI", "setting": "RPMI-8226 leukemia", "result": "> 100", "unit": "µM"}, {"measurement": "TGI", "setting": "RXF 393 renal", "result": "> 100", "unit": "µM"}, {"measurement": "TGI", "setting": "RXF-631 renal", "result": "> 100", "unit": "µM"}, {"measurement": "TGI", "setting": "SF-268 CNS", "result": "> 100", "unit": "µM"}, {"measurement": "TGI", "setting": "SF-295 CNS", "result": "> 100", "unit": "µM"}, {"measurement": "TGI", "setting": "SF-539 CNS", "result": "> 100", "unit": "µM"}, {"measurement": "TGI", "setting": "SK-MEL-2 melanoma", "result": "> 100", "unit": "µM"}, {"measurement": "TGI", "setting": "SK-MEL-28 melanoma", "result": "> 100", "unit": "µM"}, {"measurement": "TGI", "setting": "SK-MEL-5 melanoma", "result": "> 100", "unit": "µM"}, {"measurement": "TGI", "setting": "SK-OV-3 ovarian", "result": "> 100", "unit": "µM"}, {"measurement": "TGI", "setting": "SN12C renal", "result": "> 100", "unit": "µM"}, {"measurement": "TGI", "setting": "SNB-19 CNS", "result": "> 100", "unit": "µM"}, {"measurement": "TGI", "setting": "SNB-75 CNS", "result": "> 100", "unit": "µM"}, {"measurement": "TGI", "setting": "SW-620 colon", "result": "> 100", "unit": "µM"}, {"measurement": "TGI", "setting": "TK-10 renal", "result": "> 100", "unit": "µM"}, {"measurement": "TGI", "setting": "U251 CNS", "result": "> 100", "unit": "µM"}, {"measurement": "TGI", "setting": "UACC-257 melanoma", "result": "> 100", "unit": "µM"}, {"measurement": "TGI", "setting": "UACC-62 melanoma", "result": "> 100", "unit": "µM"}, {"measurement": "TGI", "setting": "UO-31 renal", "result": "> 100", "unit": "µM"}, {"measurement": "TGI", "setting": "XF 498 CNS", "result": "> 100", "unit": "µM"}]}
